Measurements as given in PubChem BioAssay (NCI).
“And” between values parts separate entries of the source, which are not always exact repeats. Equal entries are not always repeated.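 These data come from cells grown in 96-well plates and exposed to compound for 48 hours at five concentrations. GI50: concentration for 50% inhibition of growth. The concentration for full growth arrest is given as TGI.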 Where a SMILES comes first, the peptide text is derived from it. The star is where a group is joined. Boc = CC(C)(C)OC(=O)*; nBu = CCCC*

Experiments:
Experiment in all cases: NCI-60 cell line screen, 48 h
[1] = system: ACHN renal
[2] = system: HCT-15 colon
[3] = system: M14 melanoma
[4] = system: MALME-3M melanoma
[5] = system: NCI-H226 lung
[6] = system: NCI-H522 lung
[7] = system: RXF 393 renal
[8] = system: SF-539 CNS
[9] = system: U251 CNS
[10] = system: UACC-257 melanoma
[11] = system: MDA-N

Row | Structure (SMILES) | TGI [1] | TGI [2] [µM] | TGI [3] | TGI [4] | TGI [5] | TGI [6] | TGI [7] | TGI [8] | TGI [9] | TGI [10] | TGI [11] [µM] | GI50 [1] | GI50 [3] | GI50 [4] | GI50 [6] | GI50 [7] | GI50 [10] | GI50 [2] [nM] | GI50 [8] [nM] | GI50 [9] [nM]
1 | O=C(O)c1cc2ccccc2c(N=Nc2ccc(S(=O)(=O)Nc3ncccn3)cc2)c1O | > 100 µM | > 100 | > 100 µM | > 100 µM | > 100 µM | > 100 µM | > 100 µM | > 100 µM | > 100 µM | > 100 µM | – | – | – | – | – | – | – | – | – | –
2 | C#C[C@]1(O)CC[C@H]2[C@@H]3CCc4cc(O)ccc4[C@H]3CC[C@@]21C | > 100 µM | > 100 | – | > 100 µM | 92.8 µM | 43.5 µM | 62.2 µM | 40.4 µM | – | > 100 µM | – | – | – | – | – | – | – | – | – | –
3 | CCOc1nc2c(N3CCCC3)nc(N3CCNCC3)nc2nc1NCc1ccccc1 | 4.55 µM | 3.45 | 2.98 µM | 3.3 µM | 3.82 µM | 2.2 µM | 2.29 µM | 2.85 µM | 2.39 µM | 3.25 µM | 2.31 | – | – | – | – | – | – | – | – | –
4 | C/C(C=O)=C/[C@@]1(C)O[C@@H](C)[C@@](C)(O)[C@@H]1O | 44.4 µM | 51.5 | > 100 µM | > 100 µM | > 100 µM | 35.5 µM | > 100 µM | > 100 µM | > 100 µM | > 100 µM | > 100 | – | – | – | – | – | – | – | – | –
5 | CN1CCC(C(O)(c2ccccc2)c2ccc(Br)cc2)CC1 (stereo not given) | > 100 µM | > 100 | 28.7 µM | 27.6 µM | 59.5 µM | 30.4 µM | 64.4 µM | 32.2 µM | 43.1 µM | 29.7 µM | 28.2 | – | – | – | – | – | – | – | – | –
6 | N#C/C(=C(/O)CCl)c1nc2ccccc2o1 | – | 4.46 | 21 µM | 29.1 µM | 5.07 µM | – | 3.77 µM | 8.74 µM | 23.8 µM | 13.2 µM | 15.8 | – | – | – | – | – | – | – | – | –
7 | COc1ccc2nc3cc(Cl)ccc3c(NCCCN3CCN(CCCNc4ccc5nnn6c7ccccc7c(=O)c4c56)CC3)c2c1 | – | > 25 | > 25 µM | – | > 25 µM | > 23.8 µM | 6.25 µM | 8.14 µM | > 25 µM | > 25 µM | > 25 | – | – | – | – | – | – | – | – | –
8 | Nc1nc(SCC(=O)c2ccc(Br)cc2)c2[nH]cnc2n1 | > 100 µM | > 100 | > 100 µM | > 100 µM | > 100 µM | 86.5 µM | > 100 µM | – | > 100 µM | > 100 µM | > 100 | – | – | – | – | – | – | – | – | –
9 | COc1ccc(CCn2cncn2)cc1 | > 100 µM | > 100 | > 100 µM | – | > 100 µM | > 100 µM | – | > 100 µM | > 100 µM | > 100 µM | – | – | – | – | – | – | – | – | – | –
10 | CCCCCCCCCCCCCCCc1nc(=S)[nH][nH]1 | > 100 µM | > 100 | > 100 µM | > 100 µM | – | 68.2 µM | > 100 µM | > 100 µM | > 100 µM | > 100 µM | – | – | – | – | – | – | – | – | – | –
11 | CCCCOc1ccc(CC(NC(=O)OC(C)(C)C)C(=O)NC(C)C(=O)NC(Cc2ccccc2)C(=O)NCC(N)=O)cc1 (stereo not given) (Boc-Y(nBu)AFG-NH2; configuration not given here) | > 100 µM | > 100 | > 100 µM | > 100 µM | > 100 µM | > 100 µM | > 100 µM | > 100 µM | > 100 µM | > 100 µM | > 100 | – | – | – | – | – | – | – | – | –
12 | CC1(C)OC[C@@H]([C@@]2(COC(c3ccccc3)(c3ccccc3)c3ccccc3)CC=CC(=O)O2)O1 | > 100 µM | > 100 | > 100 µM | > 100 µM | > 100 µM | 40.9 µM | 69.5 µM | > 100 µM | > 100 µM | > 100 µM | – | – | – | – | – | – | – | – | – | –
13 | COc1cc(C2S/C(=C/c3ccccc3)C(=O)N2c2cccc(NC(C)=O)c2)cc(OC)c1OC (stereo not given) | > 100 µM | > 100 | > 100 µM | 98.3 µM | > 100 µM | 47.1 µM | > 100 µM | – | 50.8 µM | > 100 µM | > 100 | – | – | – | – | – | – | – | – | –
14 | O=[N+]([O-])c1ccc(N=Nc2c(O)[nH]c3ccccc23)c([N+](=O)[O-])c1 | 19.2 µM | 57.9 | > 100 µM | – | 75.5 µM | > 100 µM | 31.5 µM | 10.2 µM | 47.8 µM | 34.6 µM | > 100 | – | – | – | – | – | – | – | – | –
15 | COC(=O)c1c(O)ccc2c1c1c(n2Cc2cc(OC)cc(OC)c2)C(=O)c2ccccc2C1=O | 56.1 µM | 21.1 | 26.2 µM | 22.4 µM | 39.3 µM | 20.9 µM | 45.6 µM | 25.9 µM | 28.2 µM | > 100 µM | 34.3 | – | – | – | – | – | – | – | – | –
16 | CC(=O)c1ccc(Nc2c3ccccc3nc3occc23)cc1 | > 72.5 µM | > 42.8 | 2.92 µM | 29.4 µM | 45.2 µM | < 0.01 µM | < 0.0216 µM | – | > 4.64 µM | 48.8 µM | < 0.01 | – | – | – | – | – | – | – | – | –
17 | O=c1c2cc(O)ccc2n2nnc3ccc(NCCNCCO)c1c32 | > 64.8 µM and 22.1 µM | > 100 | 31.2 µM and 17.9 µM | 20.5 µM and 11.5 µM | 26.7 µM and 11.5 µM | 2.33 µM and 4.8 µM | 14.4 µM and 9.34 µM | 15.9 µM and 14.9 µM | 7.43 µM and 13.3 µM | 53.8 µM and 20.7 µM | – | 7.68 µM and 3.58 µM | 11.9 µM and 5.64 µM | 6020 nM and 2560 nM | 582 nM and 1470 nM | 3260 nM and 1150 nM | 20.5 µM and 6.76 µM | – | – | –
18 | CN(CCc1ccccn1)c1ccc2c(c1)C(=O)c1ccccc1-2 | > 100 µM | > 100 | > 100 µM | > 100 µM | > 100 µM | > 100 µM | > 100 µM | – | > 100 µM | > 100 µM | > 100 | – | – | – | – | – | – | – | – | –
19 | CN(C)c1ccc(-c2ccc(-c3ccc(C(=N)N)cn3)o2)cc1 | 3.13 µM | 2.98 | 3.47 µM | 3.93 µM | – | 3.44 µM | – | 2.9 µM | 2.91 µM | 3.43 µM | – | 1.75 µM | 1.85 µM | 2040 nM | 1840 nM | – | 1.77 µM | 1360 | 1540 | 1530
20 | COc1ccc(C2C3CCc4ccccc4C3=NN2S(=O)(=O)c2cccc(C(=O)O)c2OC)cc1 (stereo not given) | 63.9 µM | 0.778 | > 100 µM | > 100 µM | > 100 µM | 14.2 µM | 62 µM | 22 µM | 34.9 µM | – | 7.25 | – | – | – | – | – | – | – | – | –
